{
  "source": "patent US9192688B2",
  "about": "(priority 2009, dated 2015)",
  "key": {"[1]": {"test_system": "mesophilic organisms"}, "[2]": {"test_system": "test organisms (Bacillus cereus, Staphylococcus aureus, Salmonella typhimurium, Escherichia coli, Saccharomyces cerevisiae, bacteriophage)", "details": "for effect on viable count of test organisms: 5 kg meat"}, "[3]": {"test_system": "E. coli"}, "[4]": {"test_system": "S. cerevisiae"}, "[5]": {"test_system": "model prion protein", "details": "T5 protocol; 5 g meat, 20% moisture, 100 ug model prion protein"}, "[6]": {"test_system": "S. typhimurium"}, "[7]": {"test_system": "S. aureus"}},
  "note": "Read-outs that look alike come from different tables or passages of the source.",
  "data": [
    {"smiles": "OO", "note": "[gaseous hydrogen peroxide, hydrogen peroxide]", "values": [
      {"measurement": "effect on viable count", "setting": "[1]", "result": "elimination"},
      {"measurement": "effect on viable count of test organisms", "setting": "[2]; trial T1: 30 ml 30% (v/v) H2O2 vaporised, 2.6 g/kg, 0.01 g/kg/s, 30 minutes contact, about 0.01 kPa", "result": "little or no effect"},
      {"measurement": "effect on viable count of test organisms", "setting": "[2]; trial T2: 60 ml 30% (v/v) H2O2 vaporised, 0.01 g/kg/s, 30 minutes contact", "result": "little or no effect"},
      {"measurement": "effect on the organisms", "setting": "[2]; trial T3: 90 ml 30% (v/v) H2O2, 7.9 g/kg meat, 0.01 g/kg/s, 30 minutes contact", "result": "significant effect"},
      {"measurement": "inactivation compared with T3 on increasing the contact rate", "setting": "[2]; trial T5: 30 ml introduced rapidly over about 5 seconds (0.5 g/kg/s), then 60 ml at 0.01 g/kg/s", "result": "enhanced"},
      {"measurement": "effect on viable count", "setting": "[3]", "result": "elimination"},
      {"measurement": "inactivation of S. cerevisiae", "setting": "[4]", "result": "particularly striking effect"},
      {"measurement": "prion content after treatment versus positive control", "setting": "[5]", "result": "significantly destroyed"},
      {"measurement": "effect on viable count", "setting": "[6]", "result": "elimination"},
      {"measurement": "effect on viable count", "setting": "[7]", "result": "elimination"}
    ]}
  ]
}
